The values that follow come from patent publication US20060234292A1, “Methods of diagnosing and treating diabetes and insulin resistance” (priority 2002, published 2006).

SMILES strings stand for the structures.

Assay type in all cases: in vivo, human
The subject of assay [1] is Protein C inhibitor (PCI) transcripts. The experiment in a line: Gene expression profiling (Affymetrix chips) of muscle from diabetics before/after 3 months troglitazone: PCI. To be noted: basal muscle sample. The source says:
The molecular mechanism by which thiazolidinediones (TZDs) cause an increase in peripheral insulin sensitivity was studied. Genes in muscle or fat whose expression is altered by TZDs may lie on a pathway leading from TZD treatment to increased insulin sensitivity. Modulators of such genes can elicit the same effect as TZD treatment. Moreover, such modulators can lack some of the side effects of TZD. The majority of glucose disposal occurs in muscle. For this reason, gene expression profiling in human muscle from diabetics treated with troglitazone was used to identify genes important for TZD action and therefore treatment of diabetes and insulin resistance. Gene expression profiling was performed on tissue samples (muscle) obtained from lean obese and diabetic individuals. […] Gene expression profile differences were calculated as follows. […] The raw data was analyzed by a statistical test to remove ‘outliers’. The mean ‘average difference score’ was then calculated from the average difference scores for all individuals in a particular treatment group. Genes were determined to be changed in three different comparisons by calculating the Students t test statistic between two conditions and selecting those with t less than or equal to 0.05. Fold change was determined as the ratio of mean average difference score in condition 2 to the mean average difference score in condition 1. […]

The subject of assay [2] is Protein C inhibitor (PCI) expression. Briefly: Real time PCR of PCI expression in muscle, pre- vs post-troglitazone-treated patients. To be noted: mean diabetic post-Tro/mean diabetic pre-Tro expression. Here is the method:
The gene expression changes observed in the human muscle samples derived from the various comparison populations analyzed in the profiling analysis described above were further confirmed by the use of real-time quantitative PCR. A combination of specific PCR primers and a Taqman probe were designed to detect and quantify expression levels for each gene. Relative gene expression levels were determined in this manner in each patient and the mean expression levels in the comparison populations were then calculated. PCI expression was also evaluated by real time PCR in lean vs. obese individuals and in pre-troglitazone-treated vs post-troglitazone-treated patients.
(In general: In qPCR the cycle at which signal appears reflects the starting amount.)

The subject of assay [3] is MAST205/MAST205b transcripts. Briefly: Gene expression profiling (Affymetrix chips) of muscle from diabetics before/after 3 months troglitazone: MAST205/MAST205b. To be noted: basal muscle sample. Here is the method:
Gene expression profiling was performed on tissue samples (muscle) obtained from lean obese and diabetic individuals. Two studies were performed. In the first study, basal samples were isolated from all individuals at the beginning of a 5 hour hyperinsulinemic euglycemic clamp. Clamp samples were isolated at the end of this procedure. Similar basal and clamp samples were taken 3 months later after all patients had taken the insulin sensitizing drug troglitazone (tro). Gene expression profile differences were calculated as follows. The expression level of a particular gene is indicated by its ‘average difference score’. The raw data was analyzed by a statistical test to remove ‘outliers’. The mean ‘average difference score’ was then calculated from the average difference scores for all individuals in a particular treatment group. Genes were determined to be changed in three different comparisons by calculating the Students t test statistic between two conditions and selecting those with t less than or equal to 0.05. Fold change was determined as the ratio of mean average difference score in condition 2 to the mean average difference score in condition 1. The first comparison is basal leans (condition 1) versus basal obese (condition 2). The second comparison is basal leans (condition 1) versus basal diabetics (condition). […]

Assay [4] deals with MAST205b expression. Briefly: Real-time PCR (Taqman) specific for MAST205b in muscle before/after 3 months troglitazone. Here is the method: (§1) The gene expression changes observed in the human muscle samples derived from the various comparison populations analyzed in the profiling analysis described above were further confirmed by the use of real-time quantitative PCR. A combination of specific PCR primers and a Taqman probe were designed to detect and quantify expression levels for each gene. Relative gene expression levels were determined in this manner in each patient and the mean expression levels in the comparison populations were then calculated. […] PCR primers and Taqman Probe were designed to detect specifically the expression of MAST205b. The sequences of the primers was as follows: […]

Assay [5] has as its system MAST205 expression. Briefly: Real-time PCR (Taqman) specific for MAST205 in muscle before/after 3 months troglitazone. Here is the method:
as §1, with “MAST205.” for “MAST205b.”

The mark [6] stands for this setting: 3 months troglitazone, gene profiling.
Where [7] appears, read: muscle, lean individuals after 3 months troglitazone, relative to Lean Pre-Trog = 100%.
[8] abbreviates: ratio of relative expression Diabetic Post-Trog to Diabetic Pre-Trog.

With `Cc1c(C)c2c(c(C)c1O)CCC(C)(COc1ccc(CC3SC(=O)NC3=O)cc1)O2` (centres unmarked) [troglitazone], in assay [1] (setting [6]), the “Fold Change (diabetic post tro/diabetic pre tro), Protein C inhibitor” value is listed as 0.51. Also, the “Mean Expr, Diabetic Post-Trog (Protein C inhibitor)” value in assay [1] (diabetics after 3 months of Troglitazone treatment, pre-Trog mean 1422) was 722. In assay [2], the “Expression Fold change, Diabetics + Tro/Diabetics − Tro (PCI)” value was found to be 0.33. In assay [3] (setting [6]), the “Fold Change, Diabetic Post-Trog vs Pre-Trog (MAST205)” value is listed as 0.74. In addition, the “Mean Expr, Diabetic Post-Trog (MAST205)” value in assay [3] (diabetics after 3 months troglitazone, pre-Trog mean 1234) stood at 919. Moreover, in assay [4] (muscle, diabetics after 3 months troglitazone, relative to Lean Pre-Trog = 100%, Diabetic Pre-Trog 197), the “Relative Exp (%), Diabetic Post-Tro (MAST205b)” value came to 111%. In assay [4] (setting [7]), the “Relative Exp (%), Lean Post-Trog (MAST205b)” value came out at 88%. Moreover, the “Fold Change (D+/D−) (MAST205b)” value in assay [4] (setting [8]) was determined as 0.56. In assay [5] (muscle, diabetics after 3 months troglitazone, relative to Lean Pre-Trog = 100%, Diabetic Pre-Trog 242), the “Relative Exp (%), Diabetic Post-Tro (MAST205)” value stood at 66%. The “Relative Exp (%), Lean Post-Trog (MAST205)” value in assay [5] (setting [7]) worked out at 98%. Besides, the “Fold Change (D+/D−) (MAST205)” value in assay [5] (setting [8]) turned out to be 0.27.
